What is called Kd is the free concentration of one partner at which half of the binding sites on the other are occupied at equilibrium, for simple one-to-one binding.

Structures are written as SMILES.

For the assay, the target named is T1, peanut agglutinin (PNA) (Arachis hypogaea, UniProt P02872).
T1 sequence (P02872 24-273): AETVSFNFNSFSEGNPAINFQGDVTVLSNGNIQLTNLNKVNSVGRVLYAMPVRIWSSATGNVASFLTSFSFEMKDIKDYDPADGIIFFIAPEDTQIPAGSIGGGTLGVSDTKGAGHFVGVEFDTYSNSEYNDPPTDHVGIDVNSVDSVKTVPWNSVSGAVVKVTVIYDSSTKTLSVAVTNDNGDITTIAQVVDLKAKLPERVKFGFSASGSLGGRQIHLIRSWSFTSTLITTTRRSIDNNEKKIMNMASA
The assay can be described thus: isothermal titration calorimetry, one-site model. Format: binding. Background: In ITC the heat of successive injections is recorded.

For the compound `[N-]=[N+]=Nc1c(F)c(F)c(C(=O)NCCOCCOCCS[C@@H]2O[C@H](CO)[C@@H](O[C@@H]3O[C@H](CO)[C@H](O)[C@H](O)[C@H]3O)[C@H](O)[C@H]2O)c(F)c1F` [compound 5, 2-(2-(2-(4-Azido-2,3,5,6-tetrafluorobenzamido)ethoxy)ethoxy)ethyl 4-O-β-D-galactopyranosyl-1-thio-β-D-glucopyranoside], the Kd was determined as 549 µM.
